Experimental findings from US12503426B2, “Synthetic derivatives of oleoyl-lysophosphatidylinositol (oleoyl-LPI) and uses thereof” (LIPOVEXA SRL, priority 2017, dated 2025) are described below.

Assay [1] concerns colonic cells of the GI tract obtained from guinea pig. Briefly: Ex vivo GLP-1 biosynthesis and secretion, guinea pig GI tract cells. It is filed as cell-based. The method in brief:
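Colonic/rectal crypts and cells from a pregnant guinea pig, collagenase-P digested and cultured one day on Matrigel, then exposed 2 h at 37 °C in serum-free DMEM with KR-62436 10 μg/ml and compound (20 μM, quadruplicate; EC50 also determined). Active GLP-1 in supernatant measured by ELISA, normalised to DMSO control.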

Another assay has as its system CREB. Briefly: CREB phosphorylation by Western blot. The class given is cell-based. Conditions: H89 10 μM pre-treatment or oleoyl-LPI in control cells. The protocol:
(§1) When cell cultures reached 80-90%, media were removed and cells were washed twice with 1×PBS. The cells were lysed in 150 μl (for one well of a 6 well plate) of Triton X-100 lysis buffer, containing phosphatase inhibitor cocktail (1:1000) (Sigma Aldrich, UK) and protease inhibitor (1:1000, Sigma Aldrich, UK). Cells were detached with scrapers and lysate were collected and centrifuged at 10,000 rpm, 4° C. for 5 minutes. The supernatant was then transferred to a 1.5 ml microcentrifuge tube and used for protein quantification. Cell lysates were stored at −20° C. for longer storage. All lysates were prepared on ice.
(§2) Non-specific antibody binding was prevented by incubating the nitrocellulose membrane in 5% milk in PBS-0.05% Tween-20 (v/v) for 30 minutes on a rotating plate. The membrane was then washed in PBS-0.05% Tween-20 (v/v) and then incubated with the primary antibody diluted in PBS-0.05% Tween-20 (v/v) on a rotating plate overnight at 4° C. After 24 hours, the membrane was washed 5× for 5 minutes with PBS-0.05% Tween-20 (v/v), and then incubated on a rotating plate with the appropriate secondary antibody for 1 hour at room temperature. […]
For orientation: Immunoblotting shows a protein as a band on a membrane.

The subject of another assay is ERK. Briefly: ERK phosphorylation by Western blot, Glutag cells. It is filed as cell-based, murine. The following applies: time course over 2 hours. The procedure: as §1, §2

pEC50: −log10 of the molar value.

What is called pEC50 is the EC50 on a negative log10 scale, so that one unit is a factor of ten. In the case of “oleoyl-lysophosphatidylinositol [oleoyl-LPI]”, the “GLP-1 biosynthesis and secretion ex vivo” value in assay [1] (20 μM, 2 hours, standardized against DMSO control) is “stimulated biosynthesis and secretion”. The pEC50 in assay [1] (ex vivo incubation 2 hours, quadruplicates) is 4.49. Moreover, the “phosphorylation of CREB” value in the assay on CREB is listed as “able to stimulate CREB phosphorylation”. Also, in the assay with ERK, the “p-ERK, time course” value was “increased p-ERK within 10 min and sustained a high level for 120 min”.
